{"source": "patent US6258839A", "about": "“Isolation of naturally occuring isoflavanone and some clinical uses thereof” (priority 1997, dated 2001)", "key": {"HIV [1]": {"system": "HIV", "assay": "HIV activity of co-isolated compounds", "format": "cell-based"}, "solubility studies": {"assay": "solubility studies", "format": "physicochemical", "description": "It is very soluble in propylene glycol (PG), polyethylene glycol (PEG) 400 and soybean oil. These solvents may be useful in formulating cosolvents suitable for pharmaceutical applications. The ethanolic solutions has UV absorptions in the 290-300 nm range, useful for analytical work. Aqueous solutions for analytical work were prepared in HPCD and diluted with water to the required concentrations. The stock solutions were stable when incubated for 48 hours at 37° C. and when stored at room temperature."}, "breast cancer": {"system": "breast cancer", "assay": "NCI 60 cell line panel, breast cancer", "format": "cell-based"}, "TiBO/A98G, V1081": {"system": "TiBO/A98G, V1081", "assay": "activity against HIV mutants: TiBO/A98G, V1081", "format": "cell-based, HIV-1", "settings": "Human immunodeficiency virus 1"}, "hollow fibre studies": {"assay": "hollow fibre studies", "format": "in vivo", "settings": "intraperitoneally; preliminary"}, "HIV-1 AZT^res": {"system": "HIV-1 AZT^res", "assay": "in vitro anti-HIV activity, AZT resistant HIV-1", "format": "cell-based", "settings": "Human immunodeficiency virus 1"}, "[2]": {"assay": "U1/TNF differential latent infection, XTT and p24", "settings": "human, u1 cells"}, "U1 latent infection": {"system": "U1 latent infection", "assay": "U1/TNF differential latent infection, XTT and p24"}, "HIV-2": {"system": "HIV-2", "assay": "activity against HIV-2", "format": "cell-based"}, "DPS/Y181C": {"system": "DPS/Y181C", "assay": "activity against HIV mutants: DPS/Y181C", "format": "cell-based, HIV-1"}, "[3]": {"system": "HIV-1 attachment to cells (CEM-SS, PBMC's)", "assay": "virus attachment assay, p24 based", "format": "cell-based"}, "SIV MAC": {"system": "SIV MAC", "assay": "in vitro antiviral activity, SIV", "format": "cell-based"}, "HIV [4]": {"system": "HIV", "assay": "combination studies with AZT", "format": "cell-based"}, "HIV-11118": {"system": "HIV-11118", "assay": "in vitro anti-HIV activity, HIV-11118", "format": "cell-based, HIV-1"}, "HEPT/P236L": {"system": "HEPT/P236L", "assay": "activity against HIV mutants: HEPT/P236L", "format": "cell-based, HIV-1", "settings": "Human immunodeficiency virus 1"}, "integrase": {"biological_target": "integrase (Human immunodeficiency virus type 1 group M subtype B, UniProt P04585)", "assay": "integrase enzymatic activity", "format": "biochemical, HIV"}, "[5]": {"system": "HIV in fresh human peripheral blood mononuclear cells (PBMC's)", "assay": "in vitro anti-HIV activity in fresh human PBMC's", "format": "cell-based, HIV-1", "settings": "Human immunodeficiency virus 1, PBMC"}, "CALO/V901, P225S": {"system": "CALO/V901, P225S", "assay": "microbe, parasite or virus in culture", "format": "cell-based, HIV-1", "settings": "Human immunodeficiency virus 1"}, "BSA": {"biological_target": "BSA (Bos taurus, UniProt P02769)", "sequence (P02769 25-607)": "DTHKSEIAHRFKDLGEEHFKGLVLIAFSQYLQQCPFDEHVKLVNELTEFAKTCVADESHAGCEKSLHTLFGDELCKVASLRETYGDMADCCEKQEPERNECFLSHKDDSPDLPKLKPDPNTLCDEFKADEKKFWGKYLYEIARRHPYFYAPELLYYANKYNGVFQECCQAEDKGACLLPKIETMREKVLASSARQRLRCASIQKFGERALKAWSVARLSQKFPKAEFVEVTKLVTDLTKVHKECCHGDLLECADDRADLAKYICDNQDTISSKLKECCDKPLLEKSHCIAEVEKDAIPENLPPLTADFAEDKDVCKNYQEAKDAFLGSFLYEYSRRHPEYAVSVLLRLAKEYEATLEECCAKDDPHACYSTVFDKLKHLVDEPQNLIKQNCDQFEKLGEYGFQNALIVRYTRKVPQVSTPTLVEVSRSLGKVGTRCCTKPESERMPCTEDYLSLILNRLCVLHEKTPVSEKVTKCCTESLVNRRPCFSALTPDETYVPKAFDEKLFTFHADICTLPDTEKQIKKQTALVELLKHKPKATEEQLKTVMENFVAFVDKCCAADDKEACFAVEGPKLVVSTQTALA", "assay": "interaction with BSA by fluorescence spectroscopy", "format": "binding, bovine", "settings": "PMZ-1 in the μM range"}, "[6]": {"system": "mutant viruses containing reverse transcriptase domain at codons 181, 139 and 100", "assay": "activity against three other mutant viruses", "format": "cell-based, HIV"}, "CEM-SS": {"system": "CEM-SS", "assay": "growth inhibition of uninfected host cells in anti-HIV screen", "settings": "Homo sapiens"}, "[7]": {"system": "HIV-1 infected cells (p24 production)", "assay": "extended time course assay, p24 and XTT", "settings": "addition to culture after infection"}}, "data": [{"molecule": "CC(C)=CCc1cc(C2COc3cc(O)cc(O)c3C2=O)cc(O)c1O", "note": "(stereo not drawn) [4382-39-2]", "values": [{"measurement": "HIV activity", "setting": "HIV [1]", "value": "devoid of HIV activity"}]}, {"molecule": "COc1c(O)cc(C2COc3cc(O)cc(O)c3C2=O)cc1CC=C(C)C", "note": "(racemic) [PMZ-1]", "values": [{"measurement": "solubility in 40% HPCD", "setting": "solubility studies; 40% hydroxypropyl beta-cyclodextrin", "value": "soluble"}, {"measurement": "solubility in ethanol", "setting": "solubility studies; ethanol", "value": "> 1000", "unit": "µg/mL"}, {"measurement": "solubility in PG, PEG 400 and soybean oil", "setting": "solubility studies; propylene glycol, polyethylene glycol 400, soybean oil", "value": "very soluble"}, {"measurement": "solubility in water", "setting": "solubility studies; water", "value": "poorly soluble"}, {"measurement": "activity against breast cancer", "setting": "breast cancer", "value": "good activity"}, {"measurement": "EC50", "setting": "TiBO/A98G, V1081", "value": "> 5", "unit": "µM"}, {"measurement": "activity in hollow fibre studies", "setting": "hollow fibre studies", "value": "active"}, {"measurement": "EC50", "setting": "HIV-1 AZT^res", "value": 0.16, "unit": "µM"}, {"measurement": "MNTC", "setting": "[2]", "value": 1000, "unit": "nM"}, {"measurement": "U1/TNF differential latent infection XTT: toxic concentration", "setting": "U1 latent infection; XTT", "value": "≤ 3.16", "unit": "µM"}, {"measurement": "U1/TNF differential latent infection p24 production", "setting": "U1 latent infection; p24", "value": "no inhibition of p24 production"}, {"measurement": "activity against HIV-2", "setting": "HIV-2", "value": "weak activity"}, {"measurement": "EC50", "setting": "DPS/Y181C; Human immunodeficiency virus 1, DPS/Y181C", "value": 1.39, "unit": "µM"}, {"measurement": "EC50", "setting": "DPS/Y181C; Human immunodeficiency virus 1, mutant Y181", "value": "~1", "unit": "µM"}, {"measurement": "effect on attachment of virons to cells", "setting": "[3]", "value": "no effect"}, {"measurement": "HIV-1 Attachment to CEM-SS cells", "setting": "[3]; at 100 μM, CEM-SS cells", "value": "No inhibition"}, {"measurement": "activity against SIV", "setting": "SIV MAC", "value": "weak activity"}, {"measurement": "anti-viral combination effect with AZT", "setting": "HIV [4]", "value": "anti-viral synergistic effects"}, {"measurement": "EC50", "setting": "HIV-11118; Human immunodeficiency virus 1, HIV-1IIIB, NCI AIDS anti-viral screen", "value": 0.2, "unit": "µM"}, {"measurement": "EC50", "setting": "HIV-11118; Human immunodeficiency virus 1, HIV-11118", "value": 0.058, "unit": "µM"}, {"measurement": "EC50", "setting": "HEPT/P236L", "value": "> 5", "unit": "µM"}, {"measurement": "IC50", "setting": "integrase", "value": 40, "unit": "µM"}, {"measurement": "EC50", "setting": "[5]; PMBC's", "value": 0.6, "unit": "µM"}, {"measurement": "EC50", "setting": "[5]; fresh human PBMC's", "value": "< 1", "unit": "µM"}, {"measurement": "EC50", "setting": "CALO/V901, P225S", "value": 0.1, "unit": "µM"}, {"measurement": "quenching of fluorescence of BSA", "setting": "BSA", "value": "concentration dependent quenching"}, {"measurement": "activity against three other mutant viruses", "setting": "[6]", "value": "some activity"}, {"measurement": "IC50", "setting": "CEM-SS", "value": 38, "unit": "µM"}, {"measurement": "IC50", "setting": "CEM-SS; cell growth, HIV-1 AZT^res test", "value": 42, "unit": "µM"}, {"measurement": "IC50", "setting": "CEM-SS; cell growth, HIV-1 AZT^sen test", "value": 35, "unit": "µM"}, {"measurement": "IC50", "setting": "CEM-SS; cell growth, HIV-1 DPS test", "value": 42, "unit": "µM"}, {"measurement": "IC50", "setting": "CEM-SS; cell growth, HIV-1 N119 test", "value": 60, "unit": "µM"}, {"measurement": "IC50", "setting": "CEM-SS; cell growth, HIV-1RF test", "value": 20, "unit": "µM"}, {"measurement": "IC50", "setting": "CEM-SS; cell growth, HIV-1 ROD test", "value": 28, "unit": "µM"}, {"measurement": "IC50", "setting": "CEM-SS; cell growth, HIV-11118 test", "value": 46, "unit": "µM"}, {"measurement": "IC50", "setting": "CEM-SS; cell growth, SIV MAC test", "value": 35, "unit": "µM"}]}, {"molecule": "CC(C)=CCc1c(O)cc(O)c2c1OC(c1ccc(O)c(O)c1)CC2=O", "note": "(stereo not drawn) [4382-39-1]", "values": [{"measurement": "HIV activity", "setting": "HIV [1]", "value": "devoid of HIV activity"}]}, {"molecule": "Cc1ccnc2c1NC(=O)c1cccnc1N2C1CC1", "note": "[nevirapine, reference compound]", "values": [{"measurement": "time after infection within which addition is effective", "setting": "[7]", "value": "≤ 8", "unit": "h"}]}]}
